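96-well plates; 48 h exposure; 5 concentrations. Endpoints by linear interpolation between flanking doses. Not reached: highest tested concentration assigned. GI50 is the concentration that inhibits growth by half. TGI is the concentration that stops growth completely.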
How the values were obtained:
Test in all cases: NCI tumour cell line growth inhibition, 48 h
OVCAR-5 ovarian = test system: OVCAR-5 ovarian
HCT-116 colon = test system: HCT-116 colon
T-47D breast = test system: T-47D breast
SR leukemia = test system: SR leukemia
EKVX NSCLC = test system: EKVX NSCLC
NCI-H226 lung = test system: NCI-H226 lung
SW-620 colon = test system: SW-620 colon
DU-145 prostate = test system: DU-145 prostate
MCF7 breast = test system: MCF7 breast
SNB-75 CNS = test system: SNB-75 CNS
HOP-62 NSCLC = test system: HOP-62 NSCLC
A549 NSCLC = test system: A549 NSCLC
K-562 leukemia = test system: K-562 leukemia
CCRF-CEM leukemia = test system: CCRF-CEM leukemia
M14 melanoma = test system: M14 melanoma
LOX IMVI melanoma = test system: LOX IMVI melanoma
SN12C renal = test system: SN12C renal
NCI-H460 lung = test system: NCI-H460 lung
PC-3 prostate = test system: PC-3 prostate
786-0 renal = test system: 786-0 renal
SF-268 CNS = test system: SF-268 CNS
HCC-2998 colon = test system: HCC-2998 colon
SK-MEL-2 melanoma = test system: SK-MEL-2 melanoma
HL-60(TB) leukemia = test system: HL-60(TB) leukemia
RPMI-8226 leukemia = test system: RPMI-8226 leukemia
OVCAR-3 ovarian = test system: OVCAR-3 ovarian
MDA-MB-435 = test system: MDA-MB-435
A498 renal = test system: A498 renal
SK-OV-3 ovarian = test system: SK-OV-3 ovarian
KM12 colon = test system: KM12 colon
BT-549 breast = test system: BT-549 breast
UACC-62 melanoma = test system: UACC-62 melanoma
RXF 393 renal = test system: RXF 393 renal
MALME-3M melanoma = test system: MALME-3M melanoma
UACC-257 melanoma = test system: UACC-257 melanoma
NCI-H23 lung = test system: NCI-H23 lung
SNB-19 CNS = test system: SNB-19 CNS
ACHN renal = test system: ACHN renal
SK-MEL-5 melanoma = test system: SK-MEL-5 melanoma
NCI/ADR-RES ovarian = test system: NCI/ADR-RES ovarian
NCI-H522 lung = test system: NCI-H522 lung
UO-31 renal = test system: UO-31 renal
MDA-MB-231 breast = test system: MDA-MB-231 breast
SK-MEL-28 melanoma = test system: SK-MEL-28 melanoma
SF-295 CNS = test system: SF-295 CNS
OVCAR-4 ovarian = test system: OVCAR-4 ovarian
HS 578T breast = test system: HS 578T breast
U251 CNS = test system: U251 CNS
TK-10 renal = test system: TK-10 renal
HCT-15 colon = test system: HCT-15 colon
IGROV1 ovarian = test system: IGROV1 ovarian
OVCAR-8 ovarian = test system: OVCAR-8 ovarian
HOP-92 NSCLC = test system: HOP-92 NSCLC
COLO 205 colon = test system: COLO 205 colon
MOLT-4 leukemia = test system: MOLT-4 leukemia
SF-539 CNS = test system: SF-539 CNS
HT29 colon = test system: HT29 colon

Q: What does the source list for Cn1ncc(NC(=O)c2nc(-c3c(F)cccc3F)sc2N)c1N1CC[C@@H](N)[C@H](F)CC1?
A: GI50 (OVCAR-5 ovarian): 16.5 µM; TGI (OVCAR-5 ovarian): 54.6 µM; GI50 (HCT-116 colon): 4.33 µM; TGI (HCT-116 colon): 60.3 µM; GI50 (T-47D breast): 3.34 µM; TGI (T-47D breast): 34.2 µM; GI50 (SR leukemia): 2.37 µM; TGI (SR leukemia): 25 µM; GI50 (EKVX NSCLC): 2.95 µM; TGI (EKVX NSCLC): 50.7 µM; GI50 (NCI-H226 lung): 1.74 µM; TGI (NCI-H226 lung): 27 µM; GI50 (SW-620 colon): 3.65 µM; TGI (SW-620 colon): 24.8 µM; GI50 (DU-145 prostate): 5.19 µM; TGI (DU-145 prostate): 42.6 µM; GI50 (MCF7 breast): 2.8 µM; TGI (MCF7 breast): 13.9 µM; GI50 (SNB-75 CNS): 1.06 µM; TGI (SNB-75 CNS): 8.83 µM; GI50 (HOP-62 NSCLC): 3.56 µM; TGI (HOP-62 NSCLC): 22.8 µM; GI50 (A549 NSCLC): 4.83 µM; TGI (A549 NSCLC): 25.6 µM; GI50 (K-562 leukemia): 3.45 µM; TGI (K-562 leukemia): 28 µM; GI50 (CCRF-CEM leukemia): 4.55 µM; TGI (CCRF-CEM leukemia): > 100 µM; GI50 (M14 melanoma): 3.03 µM; TGI (M14 melanoma): 18.5 µM; GI50 (LOX IMVI melanoma): 5.71 µM; TGI (LOX IMVI melanoma): 21 µM; GI50 (SN12C renal): 3.69 µM; TGI (SN12C renal): 43.3 µM; GI50 (NCI-H460 lung): 5.02 µM; TGI (NCI-H460 lung): 21.2 µM; GI50 (PC-3 prostate): 3.6 µM; TGI (PC-3 prostate): 32 µM; GI50 (786-0 renal): 3.75 µM; TGI (786-0 renal): 20.8 µM; GI50 (SF-268 CNS): 3.27 µM; TGI (SF-268 CNS): 32.6 µM; GI50 (HCC-2998 colon): 14.2 µM; TGI (HCC-2998 colon): 35.2 µM; GI50 (SK-MEL-2 melanoma): 3.45 µM; TGI (SK-MEL-2 melanoma): 13.5 µM; GI50 (HL-60(TB) leukemia): 4.22 µM; TGI (HL-60(TB) leukemia): 17.3 µM; GI50 (RPMI-8226 leukemia): 2.54 µM; TGI (RPMI-8226 leukemia): 29.3 µM; GI50 (OVCAR-3 ovarian): 11.1 µM; TGI (OVCAR-3 ovarian): 31.3 µM; GI50 (MDA-MB-435): 3.61 µM; TGI (MDA-MB-435): 19.4 µM; GI50 (A498 renal): 1.17 µM; TGI (A498 renal): 7.55 µM; GI50 (SK-OV-3 ovarian): 1.42 µM; TGI (SK-OV-3 ovarian): 6 µM; GI50 (KM12 colon): 12.4 µM; TGI (KM12 colon): 54.1 µM; GI50 (BT-549 breast): 2.39 µM; TGI (BT-549 breast): 16.5 µM; GI50 (UACC-62 melanoma): 5.33 µM; TGI (UACC-62 melanoma): 25.2 µM; GI50 (RXF 393 renal): 2.98 µM; TGI (RXF 393 renal): 15.3 µM; GI50 (MALME-3M melanoma): 5.18 µM; TGI (MALME-3M melanoma): 21 µM; GI50 (UACC-257 melanoma): 14.4 µM; TGI (UACC-257 melanoma): 30.6 µM; GI50 (NCI-H23 lung): 11.4 µM; TGI (NCI-H23 lung): 34.4 µM; GI50 (SNB-19 CNS): 26.3 µM; TGI (SNB-19 CNS): 86.5 µM; GI50 (ACHN renal): 2.67 µM; TGI (ACHN renal): 16.7 µM; GI50 (SK-MEL-5 melanoma): 4.77 µM; TGI (SK-MEL-5 melanoma): 17.8 µM; GI50 (NCI/ADR-RES ovarian): 20.5 µM; TGI (NCI/ADR-RES ovarian): > 89.8 µM; GI50 (NCI-H522 lung): 2.67 µM; TGI (NCI-H522 lung): 14.9 µM; GI50 (UO-31 renal): 1.24 µM; TGI (UO-31 renal): 5.67 µM; GI50 (MDA-MB-231 breast): 6.93 µM; TGI (MDA-MB-231 breast): 31 µM; GI50 (SK-MEL-28 melanoma): 10.4 µM; TGI (SK-MEL-28 melanoma): 25.6 µM; GI50 (SF-295 CNS): 8.75 µM; TGI (SF-295 CNS): 24 µM; GI50 (OVCAR-4 ovarian): 4.17 µM; TGI (OVCAR-4 ovarian): 44.3 µM; GI50 (HS 578T breast): 2.99 µM; TGI (HS 578T breast): 14.8 µM; GI50 (U251 CNS): 8.54 µM; TGI (U251 CNS): 23.9 µM; GI50 (TK-10 renal): 2.81 µM; TGI (TK-10 renal): 41.7 µM; GI50 (HCT-15 colon): 3.86 µM; TGI (HCT-15 colon): 28.7 µM; GI50 (IGROV1 ovarian): 2.88 µM; TGI (IGROV1 ovarian): 19.8 µM; GI50 (OVCAR-8 ovarian): 8.65 µM; TGI (OVCAR-8 ovarian): 37.1 µM; GI50 (HOP-92 NSCLC): 4.12 µM; TGI (HOP-92 NSCLC): 31.3 µM; GI50 (COLO 205 colon): 3.33 µM; TGI (COLO 205 colon): 16.7 µM; GI50 (MOLT-4 leukemia): 3.54 µM; TGI (MOLT-4 leukemia): 30.5 µM; GI50 (SF-539 CNS): 3.85 µM; TGI (SF-539 CNS): 15.3 µM; GI50 (HT29 colon): 5.58 µM; TGI (HT29 colon): 27.5 µM
